Results taken from patent publication US20200282010A1, “IMMUNOGENIC COMPOSITIONS AND USES THEREFOR” (Epiaxis Therapeutics Pty Ltd, priority 2017, published 2020).

Test system: CD8^+ T-cells of melanoma patient liquid biopsies
Test: Immunofluorescence of EOMES, TBET and PD-1 (exhaustion signature) in patient CD8+ T-cells
Format: cell-based, human
Conditions: CR, SD and PD cohorts, vehicle or PMA/CI, FIG. 4
Text: FIG. 4 is graphical representation showing expression of EOMES, TBET and PD-1 in CD8^+ T-cells of melanoma patient liquid biopsies in the presence and absence of PKCθi peptide inhibitor. A) CD8^+ T-cells were isolated from melanoma patient liquid biopsies (CR=complete response, SD=Stable Disease, PD=progression of disease) and were stimulated with PMA/CI and pre-clinically screened with either vehicle control or PKCθi peptide inhibitor. Samples were then fixed and immunofluorescence microscopy was performed on these cells with primary antibodies for EOMES, TBET, and PD-1. Representative images for each dataset are shown. Graph represents the TCFI for PD1, TNFI for EOMES and TNFI for TBET measured using ImageJ to select the nucleus minus background (n=>20 cells/sample). Graphs depicting the % inhibition or induction based on protein expression where also plotted for each protein target relative to untreated sample.
Metastatic Melanoma Biopsies were pre-enriched using the RosetteSep™ method to isolate CTCs by employing the RosetteSep™ Human CD8 enrichment Kit (15063, StemCell Technologies) to isolate CD8+ cells and red blood cells, using density gradient centrifugation with SepMate™-50 (IVD) density gradient tubes (85450, StemCell Technologies) and Lymphoprep™ density gradient medium (07861, StemCell Technologies). […] Digital images were analysed using ImageJ software (ImageJ, NIH, Bethesda, Md., USA) to determine the either the Total Nuclear Fluorescent Intensity (TNFI), the Total Cytoplasmic Fluorescent Intensity (TCFI) or total Fluorescent Intensity (TFI). The plot-profile feature of ImageJ was used to plot the fluorescence signal intensity along a single line spanning the nucleus (n=5 lines per a nucleus, 5 individual cells) using the average fluorescent signal intensity for the indicated pair of antibodies was plotted for each point on the line with SE. […] For each plot-profile the PCC was determined. […]

## RKEIDPPFRPKVK [PKCθi]
  TBET expression: enhancing
Inhibitor 8 mm
  expression of EOMES: inhibiting expression
  expression of PD-1: inhibiting expression
